Key:
[1] = test system: RS4;11 cells (acute lymphoblastic leukemia cells); assay: RS4;11 cell proliferation, CellTilter-Glo luminescence cell viability assay; format: cell-based; settings: Homo sapiens, RS4-11; CTG readout after 48 hours
Protocol: The effects of the compounds of the present invention on the proliferation of RS4;11 cells were evaluated using a luminescence cell viability assay.
A CellTilter-Glo (CTG) Assay Kit is used to detect ATP, a key indicator of the metabolism of living cells, through a unique, highly sensitive and stable luciferase. The luminescent signal generated in the assay is proportional to the number of the viable cells in the medium, therefore the cell proliferation of RS4;11 can be determined.
CellTilter-Glo reagent (Promega, G7572) is composed of CellTilter-Glo lyophilized powder and CellTilter-Glo buffer, and the lyophilized powder can be dissolved in the buffer for use.
RS4;11 cells (ATCC, CRL-1873) were cultured in RPMI1640 complete medium (Thermofisher, 72400-047) containing 10% FBS (GBICO, 10099-141) and 100 units/ml penicillin-streptomycin solution (Thermofisher, 15140122)), when the cells covered 80-90% in the culture vessel, they were digested and dispersed with 0.25% trypsin (containing EDTA) (Thermofisher, 25200056) and then planted in a white 384-well plate (Thermofisher, 164610), and then the 384-well plate was incubated overnight in a 37° C., 5% CO2 incubator. Compounds were dissolved in 100% DMSO and diluted to […], followed by 4-fold serial dilutions with DMSO to a minimum concentration of 0.061 μM, and each concentration point was further diluted 50-fold with FBS-free RPMI1640 medium. If the IC50 of the compound is very low, the initial concentration of the compound can be reduced. After overnight, 3 μL of the compound diluted in the medium was added to each well, and the mixture was gently centrifuged to mix. The group without cells was used as a negative control (100% inhibition), and the group with 0.2% DMSO was used as a positive control (0% inhibition). The 384-well plate was placed in a 37° C., 5% CO2 incubator for further cultivation. After 48 hours, the plate was taken out and equilibrated to room temperature. 15 μl of CTG reagent was added to each well, the plate was shaken gently for 3 minutes to make sure that the cell lysis was carried out thoroughly, then the plate was kept for 10 minutes to stabilize the luminescence signal, then the luminescence signal was read by EnVision (Perkin Elmer).
The inhibition percentage of the compounds to RS4;11 cell proliferation can be calculated using the following equation:
Inhibition Percentage=100−100*(signal compound-signal negative control)/(signal positive control-signal negative control)
(§1) The IC50 of the compound was calculated from 8 concentration points using XLfit (ID Business Solutions Ltd., UK) software by the following equation:
Y=Bottom+(Top−Bottom)/(1+10^((Log IC50−X)*slope factor))
wherein, Y is the inhibition percentage, Bottom is the bottom plateau of the curve (the bottom plateau value of the S-shaped curve), Top is the top plateau of the curve (the top plateau value of the S-shaped curve), and X is the logarithm of the concentration of the compound to be tested.

[2] = target: T1, human recombinant Bcl-2 protein (Homo sapiens, UniProt P10415); assay: Fluorescence polarization test for inhibition of BCL-2 binding to FITC-BIM; settings: 5 nM BCL-2, 5 nM FITC-BIM, read-out: FP BCL-2 IC50
T1 construct: purchased Beijing Yigiao Shenzhou Biotechnology Co., Ltd. 10195-HOSE
Protocol: Fluorescence polarization assay was used to evaluate the effect of the compounds of the present invention on the biological activity of BCL-2.
The effects of the compounds on the biological activity of BCL-2 were evaluated by determining the effects of the compounds on the binding activity of BCL-2 to leukemia pro-apoptotic protein (BIM) using an affinity assay method based on the principle of fluorescence polarization. The reaction buffer comprises the following components: PBS (pH 7.4, 3 mM Na2HPO4, 155 mM NaCl, 1 mM KH2PO4), 1 mM DTT; human recombinant Bcl-2 protein (Item No. 10195-HOSE) (purchased from Beijing Yigiao Shenzhou Biotechnology Co., Ltd.) was diluted to 5 nM with the reaction buffer; FITC-labeled BIM polypeptide (purchased from Nanjing GenScript Biotechnology Co., Ltd.) was diluted to 5 nM with the reaction buffer.
The compounds were dissolved in 100% DMSO and diluted to 0.1, 1, 10 μM, followed by 4-fold serial dilutions with DMSO to a minimum concentration of 0.0061, 0.061, 0.61 nM, each concentration point was further diluted 50-fold with the reaction buffer.
3 μL of solution containing the compound and 12 μL of solution containing BCL-2 were added to the black 384-well assay plate, mixed well, and incubated at room temperature for 15 minutes. Subsequently, 15 μL of FITC-BIM solution was added, and the reaction mixture was incubated at room temperature for 30 minutes in dark place, and then the fluorescence polarization was detected immediately on an Envision multi-mode reader (Perkin Elmer), with 480 nm as the excitation wavelength and 535 nm as the emission wavelength. In this experiment, the group without BCL-2 protein was used as a negative control (100% inhibition), and the group with BCL-2 protein but without the compound was used as a positive control (0% inhibition). The inhibition percentage of the compound to the affinity of BCL-2 can be calculated using the following equation: […]
as §1
(§2) Y=Bottom+(Top−Bottom)/(1+10^((log IC50−X)*slope factor))
(§3) where Y is the inhibition percentage, X is the logarithm of the concentration of the compound to be tested, Bottom is the maximum inhibition percentage, Top is the minimum inhibition percentage, and slope factor is the slope coefficient of the curve.

[3] = target: T2, human recombinant Bcl-XL protein (Homo sapiens, UniProt Q07817); assay: Fluorescence polarization test for inhibition of BCL-XL binding to FITC-BIM; settings: 10 nM BCL-XL, 10 nM FITC-BIM, read-out: FP BCL-XL IC50
T2 construct: purchased Beijing Yiqiao Shenzhou Biotechnology Co., Ltd. 10455-H0SE
Protocol: Fluorescence polarization assay was used to evaluate the effect of the compounds of the present invention on the biological activity of BCL-XL.
The effects of the compounds on the biological activity of BCL-XL were evaluated by detecting the effects of the compounds on the binding activity of BCL-XL to BIM using an affinity assay method based on the principle of fluorescence polarization. The reaction buffer contains the following components: PBS (pH 7.4, 3 mM Na2HPO4, 155 mM NaCl, 1 mM KH2PO4), 1 mM DTT; human recombinant Bcl-XL protein (Item No. 10455-H0SE) (purchased from Beijing Yiqiao Shenzhou Biotechnology Co., Ltd.) was diluted to 10 nM with reaction buffer; FITC-labeled BIM polypeptide (purchased from Nanjing GenScript Biotechnology Co., Ltd) was diluted to 10 nM with reaction buffer.
The compounds were dissolved in 100% DMSO and diluted to 1 μM, followed by 4-fold serial dilutions in DMSO to a minimum concentration of 0.061 nM, each concentration point was further diluted 50-fold with reaction buffer.
3 μL of solution containing the compound and 12 μL of solution containing BCL-XL were added to the black 384-well assay plate, mixed well, and incubated at room temperature for 15 minutes. Subsequently, 15 μL of FITC-BIM solution was added, and the reaction mixture was incubated at room temperature for 30 minutes in the dark place, and then the fluorescence polarization was detected immediately on an Envision multi-plate reader (Perkin Elmer), with 480 nm as the excitation wavelength and 535 nm as the emission wavelength. In this experiment, the group without BCL-XL protein was used as a negative control (100% inhibition), and the group with BCL-XL protein but without the compound was added as a positive control (0% inhibition). The inhibition percentage of the compound to the affinity of BCL-XL can be calculated using the following equation: […]
as §1, §2, §3

T2 sequence (Q07817 whole entry): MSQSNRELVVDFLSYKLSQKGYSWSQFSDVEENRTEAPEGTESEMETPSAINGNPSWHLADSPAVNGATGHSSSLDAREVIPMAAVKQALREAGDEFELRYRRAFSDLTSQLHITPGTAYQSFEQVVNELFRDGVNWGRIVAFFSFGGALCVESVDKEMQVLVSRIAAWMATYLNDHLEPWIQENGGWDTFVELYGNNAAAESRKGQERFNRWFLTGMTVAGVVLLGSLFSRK
T1 sequence (P10415 whole entry): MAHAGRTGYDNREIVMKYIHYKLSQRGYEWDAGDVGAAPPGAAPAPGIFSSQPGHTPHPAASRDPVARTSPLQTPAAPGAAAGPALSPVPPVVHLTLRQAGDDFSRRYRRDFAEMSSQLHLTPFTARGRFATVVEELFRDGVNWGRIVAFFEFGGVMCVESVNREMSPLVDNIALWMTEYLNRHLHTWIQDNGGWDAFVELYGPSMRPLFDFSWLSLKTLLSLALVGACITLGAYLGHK

Row | SMILES | IC50 [1] | IC50 [2] | IC50 [3]
1 | C[C@@H]1CN(c2ccc(C(=O)NS(=O)(=O)c3cc(F)c(NC[C@H]4COCCO4)c([N+](=O)[O-])c3)c(Oc3cnc4[nH]ccc4c3)c2)CCN1CC1=C(c2ccc(Cl)cc2)CC(C)(C)C2(CC2)C1 [Example 32, N-((4-((((S)-1,4-dioxan-2-yl)methyl)amino)-3-fluoro-5-nitrophenyl)-sulfonyl)-2-((1H-pyrrolo [2,3-b]pyridin-5-yl)oxy)-4-((R)-4-((6-(4-chlorophenyl)-8,8-dimethylspiro[2.5]oct-5-en-5-yl)methyl)-3-methylpiperazin-1-yl) benzamide] | 6.6 nM | 1.8 nM | > 1000 nM
2 | C[C@@H]1CN(c2ccc(C(=O)NS(=O)(=O)c3ccc(NC[C@H]4COCCO4)c([N+](=O)[O-])c3)c(Oc3cnc4[nH]ccc4c3)c2)CCN1CC1=C(c2ccc(Cl)cc2)CCC2(CC2)C1 [Example 36] | 21 nM | 4.78 nM | > 1000 nM
3 | C[C@@H]1CN(c2ccc(C(=O)NS(=O)(=O)c3ccc(NC[C@H]4COCCO4)c([N+](=O)[O-])c3)c(Oc3cnc4[nH]ccc4c3)c2)C[C@@H](C)N1CC1=C(c2ccc(Cl)cc2)CC(C)(C)CC1 [Example 59, N-((4-((((S)-1,4-Dioxan-2-yl)menthyl)amino)-3-nitrophenyl)sulfonyl)-2-((1H-pyrrolo[2,3-b]pyridin-5-yl)oxy)-4-((3R,5R)-4-((4′-chloro-5,5-dimethyl-3,4,5,6-tetrahydro-[1,1′-biphenyl]-2-yl)methyl)-3,5-dimethylpiperazin-1-yl)benzamide] | 193 nM | 73.2 nM | > 1000 nM
4 | C[C@H]1CN(c2ccc(C(=O)NS(=O)(=O)c3ccc(NC[C@H]4COCCO4)c([N+](=O)[O-])c3)c(Oc3cnc4[nH]ccc4c3)c2)CCN1CC1=C(c2ccc(Cl)cc2)CCC(C)(C)C1 [Example 49, N-((4-((((S)-1,4-dioxan-2-yl)methyl)amino)-3-nitrophenyl)sulfonyl)-2-((1H-pyrrolo[2,3-b]pyridin-5-yl)oxy)-4-((S)-4-((4′-chloro-4,4-dimethyl-3,4,5,6-tetrahydro-[1,1′-biphenyl]-2-yl)methyl)-3-methylpiperazin-1-yl) benzamide] | > 500 nM | > 100 nM | > 1000 nM

The next lines start with the values.

Row | IC50 [1] | IC50 [2] | IC50 [3] | SMILES
5 | 8.1 nM | 3.57 nM | > 1000 nM | C[C@@H]1CN(c2ccc(C(=O)NS(=O)(=O)c3ccc(NCC4CCOCC4)c([N+](=O)[O-])c3)c(Oc3cnc4[nH]ccc4c3)c2)CCN1CC1=C(c2ccc(Cl)cc2)CC(C)(C)C2(CC2)C1 [Example 31, (R)-2-((1H-Pyrrolo[2,3-b]pyridin-5-yl)oxy)-4-(4-((6-(4-chlorophenyl)-8,8-dimethylspiro[2.5]oct-5-en-5-yl)methyl)-3-methylpiperazin-1-yl)-N-((3-nitro-4-(((tetrahydro-2H-pyran-4-yl)methyl)amino)phenyl)sulfonyl)benzamide]
6 | 32 nM | 2.71 nM | > 1000 nM | C[C@@H]1CCC(CN2CCN(c3ccc(C(=O)NS(=O)(=O)c4cc(F)c(NCC5CCOCC5)c([N+](=O)[O-])c4)c(Oc4cnc5[nH]ccc5c4)c3)[C@H](C)C2)=C(c2ccc(Cl)cc2)C1 [Example 25, 2-((1H-pyrrolo[2,3-b]pyridin-5-yl)oxy)-4-((R)-(((R)-4′-chloro-5-methyl-3,4,5,6-tetrahydro-[1,1′-biphenyl]-2-yl)methyl)-2-methylpiperazin-1-yl)-N-((3-fluoro-5-nitro-4-(((tetrahydro-2H-pyran-4-yl)methyl)amino)phenyl)sulfonyl)benzamide]
7 | 51 nM | 9.37 nM | > 1000 nM | C[C@@H]1CCC(CN2CCN(c3ccc(C(=O)NS(=O)(=O)c4ccc(NCC5CCOCC5)c([N+](=O)[O-])c4)c(Oc4cnc5[nH]ccc5c4)c3)[C@H](C)C2)=C(c2ccc(Cl)cc2)C1 [Example 23, 2-((1H-pyrrolo[2,3-b]pyridin-5-yl)oxy)-4-((R)-4-(((R)-4′-chloro-5-methyl-3,4,5,6-tetrahydro-[1,1′-biphenyl]-2-yl)methyl)-2-methylpiperazin-1-yl)-N-((3-nitro-4-(((tetrahydro-2H-pyran-4-yl)methyl)amino)phenyl)sulfonyl)benzamide]
8 | 4.73 nM | 2.05 nM | > 1000 nM | C[C@@H]1CN(c2ccc(C(=O)NS(=O)(=O)c3cc(F)c(NCC4CCOCC4)c([N+](=O)[O-])c3)c(Oc3cnc4[nH]ccc4c3)c2)CCN1CC1=C(c2ccc(Cl)cc2)CC(C)(C)CC1 [Example 1, (R)-2-((1H-pyrrolo[2,3-b]pyridin-5-yl)oxy)-4-(4-((4′-chloro-5,5-dimethyl-3,4,5,6-tetrahydro-[1,1′-biphenyl]-2-yl)methyl)-3-methylpiperazin-1-yl)-N-((3-fluoro-5-nitro-4-(((tetrahydro-2H-pyran-4-yl)methyl)amino)phenyl)sulfonyl)benzamide]

From patent US20230271959A1, “HETEROCYCLIC COMPOUND AS BCL-2 INHIBITOR” (Beijing Innocare Pharma Tech Co., Ltd., priority 2020, published 2023)
